Reference: US11505533B2, “Metabolically stable N-acylaminooxadiazoles useful as antibacterial agents” (MICROBIOTIX, INC., priority 2017, dated 2022)
Like-named read-outs stand apart in the source and are kept apart here.

Columns and labels:
[1] = target: Nicotinic Acetylcholine a1, Bungarotoxin (Homo sapiens, UniProt P02708+P07510+Q07001); type: binding; conditions: for % Inhibition: 10 μM, human
CYP450, 2C19 [2] = target: T1, CYP450, 2C19 (Homo sapiens, UniProt P33261); conditions: 10 µM
Muscarinic M2 = target: T2, Muscarinic M2 (Homo sapiens, UniProt P08172); type: binding; conditions: for % Inhibition: 10 μM
T2 sequence (P08172 1-466): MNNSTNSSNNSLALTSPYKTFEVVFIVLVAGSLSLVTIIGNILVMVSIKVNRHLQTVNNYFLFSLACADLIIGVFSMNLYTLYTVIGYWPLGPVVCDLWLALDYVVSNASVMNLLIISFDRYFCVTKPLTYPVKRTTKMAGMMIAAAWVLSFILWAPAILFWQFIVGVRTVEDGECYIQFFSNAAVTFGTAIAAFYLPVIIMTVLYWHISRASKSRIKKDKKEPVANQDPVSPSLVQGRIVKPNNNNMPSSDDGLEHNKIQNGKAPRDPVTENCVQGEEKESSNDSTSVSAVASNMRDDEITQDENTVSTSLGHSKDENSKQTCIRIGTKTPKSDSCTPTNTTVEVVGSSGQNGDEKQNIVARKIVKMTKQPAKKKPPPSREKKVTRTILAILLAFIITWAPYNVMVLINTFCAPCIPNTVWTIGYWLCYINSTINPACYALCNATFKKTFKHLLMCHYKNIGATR

[3] = test system: Calcium Channel L-type, Dihydropyridine; type: binding; conditions: 10 μM; rat
CYP450, 2C9 [4] = target: T3, CYP450, 2C9 (Homo sapiens, UniProt P11712); conditions: 10 µM
Dopamine D1 = Dopamine D1 (Homo sapiens, UniProt P21728); type: binding; conditions: for % Inhibition: 10 μM
Sodium Channel, Site 2 = type: binding; conditions: 10 μM; rat
MRSA strain BAA-1717 = assay: Neutropenic murine thigh model; type: in vivo, mice; conditions: 25 mg/kg PO once, 2 h after infection; CFU counts 24 hrs after dosing; n=4
[5] = in vivo
Adenosine A1 = target: T4, Adenosine A1 (Homo sapiens, UniProt P30542); type: binding; conditions: for % Inhibition: 10 μM
T4 sequence (P30542 1-326): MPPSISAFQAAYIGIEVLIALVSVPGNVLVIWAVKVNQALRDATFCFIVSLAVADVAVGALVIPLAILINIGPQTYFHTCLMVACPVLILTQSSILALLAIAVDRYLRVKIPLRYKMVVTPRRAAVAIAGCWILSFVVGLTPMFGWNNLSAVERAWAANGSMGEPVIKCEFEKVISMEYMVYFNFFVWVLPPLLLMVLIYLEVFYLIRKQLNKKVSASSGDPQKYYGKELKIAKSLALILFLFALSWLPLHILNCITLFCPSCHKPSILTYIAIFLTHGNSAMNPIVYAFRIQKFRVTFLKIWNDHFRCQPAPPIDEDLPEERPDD

[6] = target: Seritonin (5-Hydroxytryptamine) 5-HT2B (Homo sapiens, UniProt P41595); type: binding; conditions: for % Inhibition: 10 μM
[7] = target: Transporter, Norepinephrine (NET) (Homo sapiens, UniProt P23975); type: binding; conditions: for % Inhibition: 10 μM
Potassium Channel hERG [8] = target: T5, Potassium Channel hERG (Homo sapiens, UniProt Q12809); conditions: 10 µM
CYP1A2 = CYP1A2 (Homo sapiens, UniProt P05177)
CYP2C19 = CYP2C19 (Homo sapiens, UniProt P33261)
CYP2D6 = CYP2D6 (Homo sapiens, UniProt P10635)
hERG potassium channel = hERG potassium channel (Homo sapiens, UniProt Q12809)
CYP450, 1A2 = target: T6, CYP450, 1A2 (Homo sapiens, UniProt P05177); conditions: 10 μM
T6 sequence (P05177 1-516): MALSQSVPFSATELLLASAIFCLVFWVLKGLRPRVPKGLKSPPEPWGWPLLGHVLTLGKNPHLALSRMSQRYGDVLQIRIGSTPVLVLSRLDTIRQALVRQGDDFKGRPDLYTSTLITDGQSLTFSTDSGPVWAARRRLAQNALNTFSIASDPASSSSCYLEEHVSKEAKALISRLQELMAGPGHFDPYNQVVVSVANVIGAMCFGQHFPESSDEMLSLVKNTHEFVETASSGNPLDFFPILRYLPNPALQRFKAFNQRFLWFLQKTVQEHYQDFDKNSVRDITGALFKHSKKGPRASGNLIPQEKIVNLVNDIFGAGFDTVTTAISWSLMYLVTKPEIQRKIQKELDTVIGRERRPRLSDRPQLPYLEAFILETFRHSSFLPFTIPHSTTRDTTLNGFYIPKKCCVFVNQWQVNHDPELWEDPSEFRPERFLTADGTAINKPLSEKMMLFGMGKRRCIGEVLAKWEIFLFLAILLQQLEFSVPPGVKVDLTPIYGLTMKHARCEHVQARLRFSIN

CYP450, 2C19 [9] = target: T1, CYP450, 2C19; conditions: 10 μM
CYP450, 2D6 = CYP450, 2D6 (Homo sapiens, UniProt P10635); conditions: 10 μM
CYP450, 3A4 = CYP450, 3A4 (Homo sapiens, UniProt P08684); conditions: 10 μM
Potassium Channel hERG [10] = target: T5, Potassium Channel hERG; conditions: 10 μM
CYP450, 2C9 [11] = target: T3, CYP450, 2C9; conditions: 10 μM

T3 sequence (P11712 whole entry): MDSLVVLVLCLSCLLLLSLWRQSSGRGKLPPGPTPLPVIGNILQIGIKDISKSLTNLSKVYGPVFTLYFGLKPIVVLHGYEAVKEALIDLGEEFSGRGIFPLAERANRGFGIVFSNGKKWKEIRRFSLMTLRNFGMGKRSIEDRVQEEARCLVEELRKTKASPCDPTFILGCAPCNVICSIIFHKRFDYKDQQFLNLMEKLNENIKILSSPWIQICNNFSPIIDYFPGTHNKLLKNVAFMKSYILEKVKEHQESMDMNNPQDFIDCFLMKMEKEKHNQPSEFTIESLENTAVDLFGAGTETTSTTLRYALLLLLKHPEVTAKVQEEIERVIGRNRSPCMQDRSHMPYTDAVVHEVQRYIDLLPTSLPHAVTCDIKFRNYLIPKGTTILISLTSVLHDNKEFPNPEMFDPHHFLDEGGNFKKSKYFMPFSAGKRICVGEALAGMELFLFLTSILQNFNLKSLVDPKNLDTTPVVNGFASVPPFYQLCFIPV
Chain of Dopamine D1 (P21728 whole entry): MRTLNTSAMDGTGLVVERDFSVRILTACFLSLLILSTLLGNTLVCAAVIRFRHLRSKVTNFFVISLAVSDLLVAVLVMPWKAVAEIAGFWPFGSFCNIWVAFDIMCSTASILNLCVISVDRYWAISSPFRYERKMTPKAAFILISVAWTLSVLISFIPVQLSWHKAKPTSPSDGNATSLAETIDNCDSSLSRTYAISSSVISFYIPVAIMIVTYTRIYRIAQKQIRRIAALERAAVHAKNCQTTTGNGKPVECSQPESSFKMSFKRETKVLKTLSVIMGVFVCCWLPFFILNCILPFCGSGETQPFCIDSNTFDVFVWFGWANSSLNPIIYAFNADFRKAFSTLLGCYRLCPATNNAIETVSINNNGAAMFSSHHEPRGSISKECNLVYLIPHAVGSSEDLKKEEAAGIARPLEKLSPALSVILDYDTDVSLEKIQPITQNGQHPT
Chain of Transporter, Norepinephrine (NET) (P23975 whole entry): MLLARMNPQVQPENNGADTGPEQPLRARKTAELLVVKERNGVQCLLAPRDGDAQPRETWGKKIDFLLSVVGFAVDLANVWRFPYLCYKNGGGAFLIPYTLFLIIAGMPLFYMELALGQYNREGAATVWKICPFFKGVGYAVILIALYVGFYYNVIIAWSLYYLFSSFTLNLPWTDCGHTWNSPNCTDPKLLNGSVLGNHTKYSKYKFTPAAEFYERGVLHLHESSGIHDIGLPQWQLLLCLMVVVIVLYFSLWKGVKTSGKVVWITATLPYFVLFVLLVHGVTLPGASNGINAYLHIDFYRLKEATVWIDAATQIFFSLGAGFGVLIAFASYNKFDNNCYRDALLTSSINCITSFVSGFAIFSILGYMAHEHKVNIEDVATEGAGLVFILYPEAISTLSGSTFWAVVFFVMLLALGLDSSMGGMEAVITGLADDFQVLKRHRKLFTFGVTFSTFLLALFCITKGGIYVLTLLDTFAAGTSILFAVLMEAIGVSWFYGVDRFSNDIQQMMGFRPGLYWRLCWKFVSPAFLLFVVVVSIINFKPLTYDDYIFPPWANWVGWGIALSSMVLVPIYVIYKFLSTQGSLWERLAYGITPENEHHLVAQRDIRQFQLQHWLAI
Chain of Nicotinic Acetylcholine a1, Bungarotoxin (P07510 23-517): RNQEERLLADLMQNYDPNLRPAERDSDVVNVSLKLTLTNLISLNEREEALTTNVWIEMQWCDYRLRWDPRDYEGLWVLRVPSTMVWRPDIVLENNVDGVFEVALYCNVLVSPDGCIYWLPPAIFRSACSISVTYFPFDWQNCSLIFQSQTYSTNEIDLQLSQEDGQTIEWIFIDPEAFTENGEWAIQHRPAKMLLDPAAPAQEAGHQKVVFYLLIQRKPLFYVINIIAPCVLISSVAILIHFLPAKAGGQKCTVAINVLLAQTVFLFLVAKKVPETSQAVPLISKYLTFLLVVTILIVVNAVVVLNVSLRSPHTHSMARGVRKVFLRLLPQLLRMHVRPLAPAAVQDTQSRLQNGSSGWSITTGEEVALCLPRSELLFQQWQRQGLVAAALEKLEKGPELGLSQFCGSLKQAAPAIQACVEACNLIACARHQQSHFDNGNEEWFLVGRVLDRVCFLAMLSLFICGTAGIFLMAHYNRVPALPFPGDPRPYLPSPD
Chain of Nicotinic Acetylcholine a1, Bungarotoxin (P02708 21-457): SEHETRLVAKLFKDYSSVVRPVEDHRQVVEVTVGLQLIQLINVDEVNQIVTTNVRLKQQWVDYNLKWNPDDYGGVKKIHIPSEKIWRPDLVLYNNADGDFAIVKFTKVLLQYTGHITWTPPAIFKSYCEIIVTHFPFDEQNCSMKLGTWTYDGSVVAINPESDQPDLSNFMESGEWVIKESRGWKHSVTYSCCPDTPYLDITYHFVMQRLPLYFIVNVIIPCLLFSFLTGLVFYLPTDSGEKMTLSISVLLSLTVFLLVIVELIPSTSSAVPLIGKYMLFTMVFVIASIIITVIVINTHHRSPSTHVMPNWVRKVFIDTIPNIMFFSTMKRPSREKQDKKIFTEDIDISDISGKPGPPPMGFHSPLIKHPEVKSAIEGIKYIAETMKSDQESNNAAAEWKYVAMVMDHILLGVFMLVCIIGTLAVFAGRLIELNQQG
Chain of Nicotinic Acetylcholine a1, Bungarotoxin (Q07001 22-517): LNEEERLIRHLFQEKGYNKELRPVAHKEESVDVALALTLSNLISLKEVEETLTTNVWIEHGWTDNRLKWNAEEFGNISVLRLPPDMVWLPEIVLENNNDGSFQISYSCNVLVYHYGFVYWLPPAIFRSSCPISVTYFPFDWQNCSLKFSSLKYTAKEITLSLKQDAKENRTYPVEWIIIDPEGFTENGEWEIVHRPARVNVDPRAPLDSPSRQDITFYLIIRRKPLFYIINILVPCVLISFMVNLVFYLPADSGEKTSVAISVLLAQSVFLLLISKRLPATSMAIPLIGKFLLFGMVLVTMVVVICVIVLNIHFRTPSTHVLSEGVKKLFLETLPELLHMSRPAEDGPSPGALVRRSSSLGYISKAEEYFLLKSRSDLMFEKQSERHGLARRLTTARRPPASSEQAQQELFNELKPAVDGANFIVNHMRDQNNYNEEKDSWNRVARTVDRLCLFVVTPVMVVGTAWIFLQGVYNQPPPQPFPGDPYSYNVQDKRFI
Chain of Nicotinic Acetylcholine a1, Bungarotoxin (P11230 24-501, further chain): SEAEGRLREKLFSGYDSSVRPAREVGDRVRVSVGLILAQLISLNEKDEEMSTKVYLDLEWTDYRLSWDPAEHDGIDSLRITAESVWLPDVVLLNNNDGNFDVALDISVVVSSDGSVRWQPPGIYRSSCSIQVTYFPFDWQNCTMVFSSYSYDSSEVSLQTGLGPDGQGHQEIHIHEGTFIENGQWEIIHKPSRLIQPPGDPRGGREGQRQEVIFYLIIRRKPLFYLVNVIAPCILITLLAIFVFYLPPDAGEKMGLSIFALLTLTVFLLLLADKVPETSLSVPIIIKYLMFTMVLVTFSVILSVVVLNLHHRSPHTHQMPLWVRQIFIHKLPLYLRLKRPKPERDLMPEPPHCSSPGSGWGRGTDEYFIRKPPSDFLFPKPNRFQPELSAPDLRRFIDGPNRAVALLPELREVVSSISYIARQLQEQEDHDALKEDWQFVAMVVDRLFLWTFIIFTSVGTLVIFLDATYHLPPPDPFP
T5 sequence (Q12809 whole entry): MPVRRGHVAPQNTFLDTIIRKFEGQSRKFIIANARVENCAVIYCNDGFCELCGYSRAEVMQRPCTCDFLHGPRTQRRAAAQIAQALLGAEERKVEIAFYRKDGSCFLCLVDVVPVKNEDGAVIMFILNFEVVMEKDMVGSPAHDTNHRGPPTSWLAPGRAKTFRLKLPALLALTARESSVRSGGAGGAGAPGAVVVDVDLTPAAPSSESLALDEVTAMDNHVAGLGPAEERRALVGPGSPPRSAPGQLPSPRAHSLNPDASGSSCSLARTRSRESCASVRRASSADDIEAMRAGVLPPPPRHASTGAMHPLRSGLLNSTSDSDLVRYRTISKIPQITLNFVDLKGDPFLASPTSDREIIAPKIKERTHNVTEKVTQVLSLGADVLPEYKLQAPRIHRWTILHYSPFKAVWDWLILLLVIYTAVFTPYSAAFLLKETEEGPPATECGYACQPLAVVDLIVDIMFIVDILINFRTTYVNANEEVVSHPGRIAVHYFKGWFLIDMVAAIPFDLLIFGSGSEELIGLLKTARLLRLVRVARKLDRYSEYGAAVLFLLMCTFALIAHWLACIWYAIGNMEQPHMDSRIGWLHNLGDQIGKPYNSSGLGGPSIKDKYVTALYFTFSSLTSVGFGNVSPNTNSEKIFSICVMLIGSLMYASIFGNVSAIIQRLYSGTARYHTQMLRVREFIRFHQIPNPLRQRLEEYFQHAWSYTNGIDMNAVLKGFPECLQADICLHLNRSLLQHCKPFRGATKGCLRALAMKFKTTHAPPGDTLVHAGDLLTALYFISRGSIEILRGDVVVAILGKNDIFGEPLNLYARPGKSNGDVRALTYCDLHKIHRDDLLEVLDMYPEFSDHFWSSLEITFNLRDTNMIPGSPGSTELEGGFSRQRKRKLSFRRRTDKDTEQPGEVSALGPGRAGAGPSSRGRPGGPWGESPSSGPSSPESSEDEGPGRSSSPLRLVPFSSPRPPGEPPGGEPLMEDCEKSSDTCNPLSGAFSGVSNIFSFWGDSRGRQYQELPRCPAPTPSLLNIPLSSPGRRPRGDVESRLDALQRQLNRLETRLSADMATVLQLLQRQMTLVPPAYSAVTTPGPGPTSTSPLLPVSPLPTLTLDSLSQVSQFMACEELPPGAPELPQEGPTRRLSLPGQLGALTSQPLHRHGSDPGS

SMILES | % Inhibition [1] [%] | % Inhibition (Muscarinic M2) [%] | % Inhibition [3] [%] | % Inhibition (Dopamine D1) [%] | % Inhibition (Sodium Channel, Site 2) [%] | % Inhibition (Adenosine A1) [%] | % Inhibition [6] [%] | % Inhibition [7] [%] | % Inhibition (CYP450, 1A2) [%] | % Inhibition (CYP450, 2C19 [9]) [%] | % Inhibition (CYP450, 2D6) [%] | % Inhibition (CYP450, 3A4) [%] | % Inhibition (Potassium Channel hERG [10]) [%] | % Inhibition (CYP450, 2C9 [11]) [%] | also measured
O=C(Nc1nnc(-c2ccc(F)cc2)o1)N1CCc2ccccc2C1 [MBX-4132] | 0 | 13 | 15 | −8 | 4 | 48 | 53 | 50 |  |  |  |  |  |  | % Inhibition (CYP450, 2C19 [2]): 44%; % Inhibition (CYP450, 2C9 [4]): 10%; drop in CFU/g compared to untreated controls (MRSA strain BAA-1717): > 2 log CFU/g; elevated single dose tolerability [5]: no effects distinct from vehicle controls; % Inhibition (Potassium Channel hERG [8]): 64%
O=C(Nc1nnc(-c2ccc(F)cc2)o1)c1ccc(Oc2ccccc2)nc1 [MBX-4237] |  |  | 2 |  | −3 |  |  |  |  |  |  |  |  |  | inhibition at 10 µM [1]: -8%; inhibition at 10 µM (Muscarinic M2): 17%; inhibition at 10 µM (CYP1A2): 1%; inhibition at 10 µM (CYP2C19): 3%; inhibition at 10 µM (Dopamine D1): 7%; inhibition at 10 µM (CYP2D6): -4%; inhibition at 10 µM (Adenosine A1): 10%; inhibition at 10 µM [6]: -4%; inhibition at 10 µM (hERG potassium channel): 8%; inhibition at 10 µM [7]: 45%
O=C(Nc1nnc(-c2ccc(F)cc2)o1)c1ccc(OC2CCCCC2)cc1 [MBX-4292] | −4 | 0 | 23 | 17 | −2 | 8 | −7 | 77 | 5 | 9 | 2 | 4 | 8 | 10 | 
O=C(Nc1nnc(-c2ccc(F)cc2)o1)N1CC=C(C(F)(F)F)CC1 [MBX-4347] | 2 | 2 | 16 | 5 | −5 | −4 | −1 | 32 | 2 | 8 | 9 | 9 | 0 | 4 | 
